Measurements as given in ChEMBL document CHEMBL5674879, “Enhancer variants reveal a conserved transcription factor network governed by PU.1 during osteoclast differentiation” (Bone Res, 2018).
Calls of active or inactive are those of the source.

What was measured:
Type in all cases: functional, cell-based
Leukemia cell [1] = assay: Downregulation of Nfatc1 mRNA expression in osteoclasts of human CSF1-induced mouse primary bone marrow derived acute myeloid leukemia cells at 250 nM measured by RT-qPCR analysis
Leukemia cell [2] = assay: Downregulation of Fosl2 mRNA expression in osteoclasts of human CSF1-induced mouse primary bone marrow derived acute myeloid leukemia cells at 250 nM measured by RT-qPCR analysis
Leukemia cell [3] = assay: Effect on osteoclast differentiation in human CSF1-induced mouse primary bone marrow derived acute myeloid leukemia cells at 250 nM assessed as reduction in PU.1 enrichment at PU.1 enhancers near Nfatc1 measured by Conventional ChIP analysis
Leukemia cell [4] = assay: Effect on osteoclast differentiation in human CSF1-induced mouse primary bone marrow derived acute myeloid leukemia cells at 250 nM assessed as reduction in PU.1 enrichment at PU.1 enhancers near d Fosl2 measured by Conventional ChIP analysis

Measured: Activity

Cc1sc2c(c1C)C(c1ccc(Cl)cc1)=N[C@@H](CC(=O)OC(C)(C)C)c1nnc(C)n1-2
active: all assays above
